US4250255A, “Assay method for isoenzyme activity” (Eastman Kodak Company, priority 1977, dated 1981)

Experiments:
[1] = target: T1, LD1 (beef heart) (Bos taurus, UniProt Q5E9B1); assay: LDH activity assay (pyruvate + NADH, absorbance decrease at 340 nm); type: biochemical; details: DSS 8.65 mM; CP 1 mM; FIG. 1B
T1 construct: Beef heart LDH (Sigma Chemical Co., Type III); purchased Sigma Chemical Co. Type III; host or cells: beef heart
Procedure: (§1) The assay for LDH activity in both the absence and presence of surfactant was conducted as follows. […] The resulting solution contains approximately 5 units/ml. […] To the equilibrated solution […]. of the enzyme solution was added, and the cuvette was rapidly shaken while covering the top of the cuvette with a small piece of Parafilm® and placed back into the spectrophotometer.
(§2) Amphiphile solutions were prepared by weighing out a given amount of amphiphile, e.g., 100 mg, and preparing a stock solution in 30 mM sodium phosphate buffer in 100 ml. volumetric flask. Solutions of lower amphiphile concentration were prepared by making the appropriate dilutions from the stock solution.
(§3) The LDH enzyme assay (pyruvate+NADH→) is measured by the decrease in NADH absorbance at 340 nm with respect to time.

[2] = target: T2, LD5 (rabbit muscle) (Oryctolagus cuniculus, UniProt P13491); assay: as above; type: biochemical
T2 construct: rabbit muscle LDH (Sigma Chemical Co., Type V); purchased Sigma Chemical Co. Type V; host or cells: rabbit muscle
Procedure: as §1, §2, §3

[3] = target: T3, LD2 (Sus scrofa, UniProt P00336+P00339); assay: LDH activity assay with amphiphile, LDH isoenzymes; type: biochemical, porcine; details: pH 7.4, read-out: LD2 activity remaining relative to buffer
T3 construct: porcine LDH, LD1, LD2, LD3, LD4 and LD5 in the form of ammonium sulfate suspensions
Procedure: (§4) 3. Beef heart LDH (Sigma Chemical Co., Type III), rabbit muscle LDH (Sigma Chemical Co., Type V) and porcine LDH, LD1, LD2, LD3, LD4 and LD5 in the form of ammonium sulfate suspensions were used for these examples.
as §1, §2

[4] = target: T4, LD3 (Sus scrofa, UniProt P00336+P00339); assay: LDH activity assay with amphiphile, LDH isoenzymes; type: biochemical, porcine; details: pH 7.4, read-out: LD3 activity remaining relative to buffer
T4 construct: porcine LDH, LD1, LD2, LD3, LD4 and LD5 in the form of ammonium sulfate suspensions
Procedure: as §4, §1, §2

[5] = target: T5, LD4 (Sus scrofa, UniProt P00336+P00339); assay: LDH activity assay with amphiphile, LDH isoenzymes; type: biochemical, porcine; details: 7 mM DSS; FIG. 8
T5 construct: porcine LDH, LD1, LD2, LD3, LD4 and LD5 in the form of ammonium sulfate suspensions
Procedure: as §4, §1, §2

[6] = target: T6, mMDH (Sus scrofa, UniProt P00346); assay: Assay for MDH (oxalacetic acid + NADH, 340 nm); type: biochemical, porcine; details: FIG. 17
T6 construct: Porcine cMDH and mMDH were used as ammonium sulfate suspensions
T6 sequence (P00346 25-338): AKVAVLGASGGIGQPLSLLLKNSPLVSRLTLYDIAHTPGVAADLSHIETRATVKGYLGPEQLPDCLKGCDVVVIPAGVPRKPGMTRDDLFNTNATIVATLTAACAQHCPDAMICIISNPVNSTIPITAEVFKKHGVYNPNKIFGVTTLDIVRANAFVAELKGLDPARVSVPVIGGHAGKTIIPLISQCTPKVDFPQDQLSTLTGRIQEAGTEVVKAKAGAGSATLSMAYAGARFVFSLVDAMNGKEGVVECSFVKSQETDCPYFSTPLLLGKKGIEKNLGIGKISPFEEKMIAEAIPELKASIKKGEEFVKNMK
Procedure: 1. Porcine cMDH and mMDH were used as ammonium sulfate suspensions. Typically, 5 μl of the enzyme stock solutions were diluted to 10 ml with 30 mM phosphate buffer, pH 7.4, prior to use. The resulting enzyme solutions were stored in ice water; 100 μl aliquots were withdrawn for assay except where another amount is specified.
The assay is based on conversion of oxalacetic acid to malate in the presence of NADH and MDH. The assay was made [formula] in 30 mM phosphate buffer, at ambient temperature, with and without appropriate surfactant concentrations, and contained 0.17 mM OAA and 0.13 mM NADH. The reaction was followed by monitoring the decrease in absorbance at 340 nm using either a Beckman 25 or Cary 118 spectrophotometer. The OAA solutions were stored over ice to prevent hydrolysis to pyruvic acid.

[7] = tested on: isoenzymes of creatinine phosphokinase (CPK); assay: Conventional coupled CPK assay (hexokinase, glucose-6-phosphate dehydrogenase); type: biochemical; details: conventional assay with coupled reactions, hexokinase and glucose-6-phosphate dehydrogenase
From the text: Of course, the particular amphiphile used and the concentration at which it is used will depend upon the particular isoenzyme being assayed. Not every amphiphile will have a discriminatory effect on the activity of isoenzymes in each isoenzyme system.

[8] = target: LD1 (Sus scrofa, UniProt P00336); assay: LDH isoenzyme assay using a multilayer element; type: biochemical, porcine; set-up: purified porcine LDH isoenzymes; details: web with DSS 0.54 g/m^2 in the spreading-reagent layer; control web 11
Procedure: (§5) Analytical elements containing all of the reagents necessary to quantitate specific isoenzymes were prepared according to the following format:
(§6) A polycarbonate-subbed Lexan® support was coated with a reagent layer comprising agarose (2.7 g/m^2) and NADH (0.12 g/m^2) in 0.1 M Tris buffer at pH 7.4, and a spreading-reagent layer comprising Avicel® (43 g/m^2), sodium pyruvate (0.5 g/m^2), polyvinyl pyrrolidone (PVP) (2.15 g/m^2) in isopropyl alcohol, and sodium decylsulfate (DSS) (0.54 g/m^2).
(§7) Control webs were coated as above except no sodium decylsulfate was added to the spreading-reagent layer.
(§8) Two aqueous solutions of purified porcine LDH isoenzymes, one containing LD1 and the other LD5, were prepared in 0.01 M Tris buffer, pH 7.4, at approximately 90 mU/ml. Sample aliquots (10 μl) of each solution and a buffer control (0.01 M Tris) were spotted onto the webs which were then monitored in a POS unit for decreasing fluorescence of the NADH with respect to time at 340 nm.

[9] = target: T7, LD5 (Sus scrofa, UniProt P00339); assay: LDH isoenzyme assay using a multilayer element; type: biochemical, porcine; set-up: purified porcine LDH isoenzymes; details: web with DSS 0.54 g/m^2 in the spreading-reagent layer; control web 13
Procedure: as §5, §6, §7, §8

[10] = tested on: LD1 and LD5; assay: Screening of amphiphiles for ability to discriminate between LD1 and LD5
Procedure: A series of solutions was prepared covering a range of concentrations for each amphiphile to be tested. The activities of both LD1 and LD5 were determined in the presence of the various concentrations of each amphiphile and compared with enzyme activities in buffer (relative activity).
Enzyme activity in the presence and absence of amphiphile was measured by the following procedure: Stock solutions of NADH (4 mM) and pyruvate (40 mM) were prepared daily in 30 mM sodium phosphate buffer, pH 7.4. Enzyme solutions were prepared daily by withdrawing 5 μl of the stock enzyme solutions with a Hamilton syringe and diluting to 5 ml with 30 mM sodium phosphate buffer. (The resulting solution contains approximately 5 U of enzyme/ml.) The enzyme assay was run by pipetting 2.7 ml of buffer or buffer surfactant solution into a 10 mm path length quartz cuvette, and 100 μl each of NADH and pyruvate stock solutions were added. […] Enzyme solution was added with good mixing; the absorbance decrease at 340 nm was measured as a function of time. The rate of the reaction was determined by measuring the slope of the initial absorbance decrease, i.e., within the first 50 seconds of the reaction.

[11] = target: T7, LD5; assay: LDH activity assay with amphiphile, LDH isoenzymes; type: biochemical, porcine; set-up: LD5 from two different species, i.e., rabbit muscle and hog muscle; from tissue; host or cells: hog muscle; details: 7 mM DSS; FIG. 8
Procedure: as §4, §1, §2

T1 sequence (Q5E9B1 2-334): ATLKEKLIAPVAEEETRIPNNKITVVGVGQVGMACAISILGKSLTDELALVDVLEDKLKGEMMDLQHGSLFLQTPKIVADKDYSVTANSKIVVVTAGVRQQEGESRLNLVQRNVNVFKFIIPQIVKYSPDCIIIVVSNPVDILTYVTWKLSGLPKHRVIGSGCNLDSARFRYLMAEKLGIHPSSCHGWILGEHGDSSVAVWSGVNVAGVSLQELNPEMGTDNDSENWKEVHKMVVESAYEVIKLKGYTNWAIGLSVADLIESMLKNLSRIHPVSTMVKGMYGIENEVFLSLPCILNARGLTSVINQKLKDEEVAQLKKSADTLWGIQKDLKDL
LD1, sequence (P00336 2-334): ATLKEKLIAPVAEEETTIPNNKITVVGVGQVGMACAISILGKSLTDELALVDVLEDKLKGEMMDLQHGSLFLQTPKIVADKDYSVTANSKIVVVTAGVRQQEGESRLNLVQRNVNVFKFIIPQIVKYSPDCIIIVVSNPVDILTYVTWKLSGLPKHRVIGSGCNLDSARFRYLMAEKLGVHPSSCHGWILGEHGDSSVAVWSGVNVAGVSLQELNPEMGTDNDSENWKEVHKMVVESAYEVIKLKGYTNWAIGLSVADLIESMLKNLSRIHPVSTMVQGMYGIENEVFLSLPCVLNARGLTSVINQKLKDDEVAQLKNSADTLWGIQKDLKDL

CCCCCCCCCCOS(=O)(=O)[O-].[Na+] [DSS, sodium decylsulfate]
LD1 (beef heart) activity in the presence of amphiphile [1]: almost no loss in LD1 activity | LD5 (rabbit muscle) activity in the presence of amphiphile ([2]; DSS 8.65 mM, CP 1 mM, FIG. 1A): rapidly inactivates | time to complete inactivation of LD5 ([2]; anionic detergent (DSS), dead time of the instrument): ≤ 5 s | remaining activity at 7000 µM [3]: ~60% | remaining activity at 7000 µM [4]: ~30% | LD4 activity relative to buffer [5]: all the LD5 and LD4 activity is destroyed | inactivation of mMDH relative to cMDH [6]: clear preferential inactivation of mMDH relative to cMDH | discriminatory effect on the activities of the isoenzymes of CPK [7]: do not appear to have any discriminatory effect | Isoenzyme Activity LD1 [8]: 15 | Isoenzyme Activity LD5 [9]: 0 | discrimination of LDH isoenzymes [10]: excellent discriminators | Effectiveness (LDH isoenzyme inhibition specificity, LD1 vs LD5) ([10]; range of amphiphile concentrations, relative activity vs buffer): ++ | LD5 activity relative to buffer [11]: all the LD5 and LD4 activity is destroyed
